Data from patent US20230085307A1, “PYRIDAZINONE COMPOUND AND HERBICIDE” (NISSAN CHEMICAL CORPORATION, priority 2019, published 2023).

Columns and labels:
late watergrass = test: Test Example 1: herbicidal activity, application before weed generation under submerged conditions (Table 16, symbol A); format: in vivo, late watergrass (Echinochloa oryzicola); details: amount of applied herbicide 320 g/ha
In short: (§1)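 Alluvial soil was flooded to 4 cm depth, weed seeds were sown mixed and 2.5-leaf rice seedlings were transplanted. On sowing day, the compound's emulsion, diluted in water to a set dose, was applied to the water surface. Plants grew at 25–30 °C and were scored 0–5 after three weeks.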

Japanese bulrush = test: Test Example 1: herbicidal activity, application before weed generation under submerged conditions (Table 16, symbol B); format: in vivo, Japanese bulrush (Schoenoplectus juncoides); details: amount of applied herbicide 320 g/ha
In short: as §1

oval-leafed pondweed = test: Test Example 1: herbicidal activity, application before weed generation under submerged conditions (Table 16, symbol C); format: in vivo, oval-leafed pondweed (Monochoria vaginalis); details: amount of applied herbicide 320 g/ha
Excerpt: [Test Example 1] Herbicidal Activity Test by Application before Weed Generation under Submerged Conditions After alluvial soil was placed into 1/10000 are of Wagner pot, water was poured and mixed to form a submerged condition having a water depth of 4 cm. Seeds of late watergrass, Japanese bulrush, and oval-leafed pondweed were sowed in a mixed manner in the aforementioned pot, and then 2.5 leaf stage rice plant seedlings were transplanted thereto. On the day of sowing seeds, the emulsion agent of the compound of the present invention prepared according to Formulation Example 2 was diluted with water so as to achieve a predetermined herbicide amount, and the diluted emulsion agent was applied to the surface of the water. The pot was placed in a greenhouse at 25° C. to 30° C. for growth of the plants. Three weeks after the herbicide application, the effect of the herbicide on each plant was evaluated according to the following criteria. Evaluation Criteria 5: Herbicidal rate of 90% or more (almost completely withered) 4: Herbicidal rate of 70% or more and less than 90% 3: Herbicidal rate of 40% or more and less than 70% 2: Herbicidal rate of 20% or more and less than 40% 1: Herbicidal rate of 5% or more and less than 20% 0: Herbicidal rate of 5% or less (almost no effect)

barnyard grass [1] = test: Test Example 3: herbicidal effect by foliage application, Wagner pot (Table 18, symbol H); format: in vivo, barnyard grass (Echinochloa crus-galli); details: amount of applied herbicide 320 g/ha
In short: (§2)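 Plants were sown in alluvial soil held under 0.1–0.5 cm standing water and grown 14 days in a greenhouse at 25–30 °C. An emulsifiable formulation, water-diluted to the set dose, was then sprayed onto the foliage, and effects were scored three weeks later using previously defined criteria.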

Chinese sprangletop = test: Test Example 3: herbicidal effect by foliage application, Wagner pot (Table 18, symbol D); format: in vivo, chinese sprangletop (Leptochloa chinensis); details: amount of applied herbicide 320 g/ha
In short: as §2

rice flat sedge = test: Test Example 3: herbicidal effect by foliage application, Wagner pot (Table 18, symbol E); format: in vivo, rice flat sedge (Cyperus iria); details: amount of applied herbicide 320 g/ha
In short: as §2

southern crabgrass [2] = test: Test Example 4: herbicidal effect by soil treatment (Table 19, symbol F); format: in vivo, southern crabgrass (Digitaria ciliaris); details: amount of applied herbicide 320 g/ha
In short: (§3)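 Applied as a water-diluted emulsion, the compound was sprayed onto soil covering newly sown seeds. Evaluation came three weeks after application, in a greenhouse held at 25° C. to 30° C.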

green foxtail [3] = test: Test Example 4: herbicidal effect by soil treatment (Table 19, symbol G); format: in vivo, green foxtail (Setaria viridis); details: amount of applied herbicide 320 g/ha
In short: as §3

barnyard grass [4] = test: Test Example 4: herbicidal effect by soil treatment (Table 19, symbol H); format: in vivo, barnyard grass (Echinochloa crus-galli); details: amount of applied herbicide 320 g/ha
In short: as §3

velvetleaf [5] = test: Test Example 4: herbicidal effect by soil treatment (Table 19, symbol M); format: in vivo, velvetleaf (Abutilon theophrasti); details: amount of applied herbicide 320 g/ha
In short: as §3

redroot pigweed [6] = test: Test Example 4: herbicidal effect by soil treatment (Table 19, symbol N); format: in vivo, redroot pigweed (Amaranthus retroflexus); details: amount of applied herbicide 320 g/ha
In short: as §3

lambsquarters [7] = test: Test Example 4: herbicidal effect by soil treatment (Table 19, symbol O); format: in vivo, lambsquarters (Chenopodium album); details: amount of applied herbicide 320 g/ha
In short: as §3

southern crabgrass [8] = test: Test Example 5: herbicidal effect by foliage application, plastic box (Table 20, symbol F); format: in vivo, southern crabgrass (Digitaria ciliaris); details: foliage application, 320 g/ha, three weeks after application
In short: (§4)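 Sow seeds spot-wise in sterilized diluvial soil; cover with ~1.5 cm soil. Grow 14 days in greenhouse, 25° C. to 30° C. Spray foliage with emulsion diluted to predetermined amount. Rate effect after 3 weeks.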

green foxtail [9] = test: Test Example 5: herbicidal effect by foliage application, plastic box (Table 20, symbol G); format: in vivo, green foxtail (Setaria viridis); details: foliage application, 320 g/ha, three weeks after application
In short: as §4

barnyard grass [10] = test: Test Example 5: herbicidal effect by foliage application, plastic box (Table 20, symbol H); format: in vivo, barnyard grass (Echinochloa crus-galli); details: foliage application, 320 g/ha, three weeks after application
In short: as §4

velvetleaf [11] = test: Test Example 5: herbicidal effect by foliage application, plastic box (Table 20, symbol M); format: in vivo, velvetleaf (Abutilon theophrasti); details: foliage application, 320 g/ha, three weeks after application
In short: as §4

redroot pigweed [12] = test: Test Example 5: herbicidal effect by foliage application, plastic box (Table 20, symbol N); format: in vivo, redroot pigweed (Amaranthus retroflexus); details: foliage application, 320 g/ha, three weeks after application
In short: as §4

lambsquarters [13] = test: Test Example 5: herbicidal effect by foliage application, plastic box (Table 20, symbol O); format: in vivo, lambsquarters (Chenopodium album); details: foliage application, 320 g/ha, three weeks after application
In short: as §4

Structure (SMILES) | Herbicidal effect, A: late watergrass (late watergrass) | Herbicidal effect, B: Japanese bulrush (Japanese bulrush) | Herbicidal effect, C: oval-leafed pondweed (oval-leafed pondweed) | herbicidal effect on H: barnyard grass (barnyard grass [1]) | herbicidal effect on D: Chinese sprangletop (Chinese sprangletop) | herbicidal effect on E: rice flat sedge (rice flat sedge) | herbicidal effect, F: southern crabgrass (southern crabgrass [2]) | herbicidal effect, G: green foxtail (green foxtail [3]) | herbicidal effect, H: barnyard grass (barnyard grass [4]) | herbicidal effect, M: velvetleaf (velvetleaf [5]) | herbicidal effect, N: redroot pigweed (redroot pigweed [6]) | herbicidal effect, O: lambsquarters (lambsquarters [7]) | F: southern crabgrass, herbicidal effect grade (southern crabgrass [8]) | G: green foxtail, herbicidal effect grade (green foxtail [9]) | H: barnyard grass, herbicidal effect grade (barnyard grass [10]) | M: velvetleaf, herbicidal effect grade (velvetleaf [11]) | N: redroot pigweed, herbicidal effect grade (redroot pigweed [12]) | O: lambsquarters, herbicidal effect grade (lambsquarters [13])
Cc1nn(C)c(=O)c(-c2c(-c3ccc(OCCS(C)(=O)=O)cc3)sc3ccc(F)cc23)c1O [2-444] | 3 (Herbicidal rate of 40% or more and less than 70%) | 0 (Herbicidal rate of 5% or less (almost no effect)) | 0 (Herbicidal rate of 5% or less (almost no effect)) | 5 (Herbicidal rate of 90% or more (almost completely withered)) | 4 (Herbicidal rate of 70% or more and less than 90%) | 5 (Herbicidal rate of 90% or more (almost completely withered)) | 5 (Herbicidal rate of 90% or more (almost completely withered)) | 5 (Herbicidal rate of 90% or more (almost completely withered)) | 4 (Herbicidal rate of 70% or more and less than 90%) | 3 (Herbicidal rate of 40% or more and less than 70%) | 5 (Herbicidal rate of 90% or more (almost completely withered)) | 5 (Herbicidal rate of 90% or more (almost completely withered)) | 5 (Herbicidal rate of 90% or more (almost completely withered)) | 5 (Herbicidal rate of 90% or more (almost completely withered)) | 5 (Herbicidal rate of 90% or more (almost completely withered)) | 5 (Herbicidal rate of 90% or more (almost completely withered)) | 5 (Herbicidal rate of 90% or more (almost completely withered)) | 5 (Herbicidal rate of 90% or more (almost completely withered))
CON=C(C)CSc1ccc(-c2sc3ccc(F)cc3c2-c2c(O)c(C)nn(C)c2=O)cc1 [2-451] | 2 (Herbicidal rate of 20% or more and less than 40%) | 0 (Herbicidal rate of 5% or less (almost no effect)) | 0 (Herbicidal rate of 5% or less (almost no effect)) | 5 (Herbicidal rate of 90% or more (almost completely withered)) | 3 (Herbicidal rate of 40% or more and less than 70%) | 5 (Herbicidal rate of 90% or more (almost completely withered)) | 0 (Herbicidal rate of 5% or less (almost no effect)) | 0 (Herbicidal rate of 5% or less (almost no effect)) | 0 (Herbicidal rate of 5% or less (almost no effect)) | 3 (Herbicidal rate of 40% or more and less than 70%) | 5 (Herbicidal rate of 90% or more (almost completely withered)) | 4 (Herbicidal rate of 70% or more and less than 90%) | 4 (Herbicidal rate of 70% or more and less than 90%) | 5 (Herbicidal rate of 90% or more (almost completely withered)) | 5 (Herbicidal rate of 90% or more (almost completely withered)) | 5 (Herbicidal rate of 90% or more (almost completely withered)) | 5 (Herbicidal rate of 90% or more (almost completely withered)) | 5 (Herbicidal rate of 90% or more (almost completely withered))
